Results taken from US20110177105A1, “Novel Selective Inhibitors of Ubiquitin Specific Protease 7, the Pharmaceutical Compositions Thereof and Their Therapeutic Applications” (priority 2010, published 2011).

Target: USP7 (Homo sapiens, UniProt Q93009)
Experiment: HA-Ub-VS labeling of active DUBs in HCT116 cell lysates
Type: biochemical
Design: endogenous in cells; host or cells: HCT116 (inducible USP7 shRNA line) cell lysate
Conditions: NEM 5 mM
From the text: The C-terminally modified vinyl sulfone derivative of ubiquitin, UbVS, was clearly helpful for a direct visualization of active DUBs in cells. This tool, which binds covalently to the cysteine active site of deubiquitinating enzymes, was successfully applied to discover and characterize novel ubiquitin/ubiquitin-like proteases and to profile active deubiquitinating enzymes in normal, virus-infected, and malignant cells (Borodovsky et al., Chem Biol 2002, 9, 1149-1159, Hemelaar et al., Mol Cell Biol 2004, 24, 84-95, Ovaa et al., Proc Natl Acad Sci USA 2004 101, 2253-2258).
The HA-Ub-VS probe (Hemagglutin tag-Ubiquitin-Vinyl Sulfone) was used in this study to directly visualize the activity of all deubiquitinating enzymes from cell lysates. This tool was used to evaluate the activity/specificity of our small molecule compounds on USP7 relative to all deubiquitinating enzymes active in physiological conditions.
Inducible USP7 shRNA HCT116 cells (previously treated with or without Doxycycline (2 μg/ml) for 4 days) as well as HEK293 cells were harvested and lysed on ice with a non denaturating buffer containing Tris pH 7.4, 50 mM; NaCl, 150 mM; MgCl2, 5 mM; EDTA, 0.5 mM; DTT, 2 mM; ATP, 2 mM; NP40, 0.5% and glycerol, 10%. Samples were incubated at 4° C. for 1 hour and clarified. Proteins were then quantified by Bradford method (Bio-Rad Protein Assay). 25 μg of proteins from native cell lysates were treated with compounds of examples 14 and 5 (from 100 μM to 3 μM) or with NEM (N-Ethylmaleimide, a thiol-reactive compound, 5 mM) for 2 hours at room temperature. The ubiquitin labeling reaction was initiated by the addition of HA-Ub-VS (8 μg/ml) in labeling buffer (Tris pH 7.6, 50 mM; MgCl2, 5 mM; EDTA, 0.5 mM; DTT, 2 mM; ATP, 2 mM; sucrose, 250 mM) and incubated at room temperature for 30 min. Samples were next heated at 100° C. for 10 minutes and briefly sonicated. They were resolved by SDS-polyacrylamide gel electrophoresis (SDS-PAGE), transferred to a nitrocellulose membrane and probed with antibodies against USP7 (Bethyl Lab, A300-034A), HA (BabCO, MMS-101P), and actin (Sigma, A2066). Horseradish peroxidase (HRP)-conjugated anti-mouse (Jackson Laboratories, 115-035-003) or HRP-conjugated anti-rabbit (Cell Signaling, 7074) antibodies were used as secondary antibodies. Signals were detected by enhanced chemiluminescence (ECL; Amersham) according to the reagent manufacturer's instructions.

Sequence of USP7 (Q93009 whole entry): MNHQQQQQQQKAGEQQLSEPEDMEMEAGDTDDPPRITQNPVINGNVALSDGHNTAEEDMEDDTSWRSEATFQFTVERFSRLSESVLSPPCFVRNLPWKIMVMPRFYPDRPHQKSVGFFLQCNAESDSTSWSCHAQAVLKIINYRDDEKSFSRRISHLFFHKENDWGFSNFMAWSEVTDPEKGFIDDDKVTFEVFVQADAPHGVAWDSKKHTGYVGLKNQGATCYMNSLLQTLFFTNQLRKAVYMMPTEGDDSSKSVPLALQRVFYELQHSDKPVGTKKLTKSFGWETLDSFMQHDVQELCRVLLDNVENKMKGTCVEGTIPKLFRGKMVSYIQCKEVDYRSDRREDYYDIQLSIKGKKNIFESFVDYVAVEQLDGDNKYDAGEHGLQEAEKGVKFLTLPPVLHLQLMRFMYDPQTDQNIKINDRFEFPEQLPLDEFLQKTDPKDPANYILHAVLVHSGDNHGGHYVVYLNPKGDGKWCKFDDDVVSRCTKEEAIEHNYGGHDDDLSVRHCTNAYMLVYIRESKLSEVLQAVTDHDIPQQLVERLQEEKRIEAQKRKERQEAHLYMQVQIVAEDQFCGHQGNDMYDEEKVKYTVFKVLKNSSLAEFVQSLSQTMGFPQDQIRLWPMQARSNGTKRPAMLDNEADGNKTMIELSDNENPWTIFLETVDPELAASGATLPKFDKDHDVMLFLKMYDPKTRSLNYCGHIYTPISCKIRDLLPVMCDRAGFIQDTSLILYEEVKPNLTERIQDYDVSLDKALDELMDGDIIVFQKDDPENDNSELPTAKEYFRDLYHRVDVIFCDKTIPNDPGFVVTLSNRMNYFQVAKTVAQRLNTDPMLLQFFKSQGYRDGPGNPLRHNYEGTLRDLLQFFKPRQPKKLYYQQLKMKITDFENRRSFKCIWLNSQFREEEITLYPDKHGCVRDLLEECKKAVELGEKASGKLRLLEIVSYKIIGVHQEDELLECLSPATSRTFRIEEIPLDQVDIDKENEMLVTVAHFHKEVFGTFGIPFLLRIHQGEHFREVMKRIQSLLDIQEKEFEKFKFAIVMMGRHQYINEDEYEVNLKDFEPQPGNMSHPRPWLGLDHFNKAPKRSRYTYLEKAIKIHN

In the case of CCN1C(=O)C=CC1=O [NEM, N-Ethylmaleimide, reference compound], the “HA-Ub-VS labeling of active DUBs” value was “inhibited”.
